We go through three molecules from patent publication US20230405145A1, “IRON OXIDE NANOPARTICLE FOR SUPPRESSING DRUG-RESISTANT GENE FOR THE TREATMENT OF GLIOBLASTOMA” (University of Washington, priority 2020, published 2023).

The conditions of data set [1]: systemic administration; cited from earlier work.
In another data set the test system is GBM6 cells. Briefly: Alamar blue viability assay, GBM6 stem-like cells. To be noted: GBM6 (cancer stem cell). A general note: Alamar Blue is a resazurin reagent that responds to reducing activity.
The subject of a further data set is A1235 cells. Briefly: Clonogenic assay, MGMT-deficient A1235 cells. Particulars: A1235 (GBM cell line).
Data set [2] has as its system GBM6 orthotopic xenograft. Briefly: Kaplan-Meier survival, orthotopic GBM6 xenograft. In kind it is in vivo, NOD-SCID mice. The procedure:
The mice were closely monitored during the entire treatment period until the time of euthanasia. […] Mice treated with NP-siMGMT-CTX extended their lifespan for 18.3 days while mice treated with TMZ alone extended their lifespan for 2.3 days.
Orthotopic xenograft tumor model and therapy response experiments. All xenograft therapy evaluations were conducted using a GBM6 orthotopic tumor model. The human GBM6 tumor was provided by the Mayo Clinic. The procedure for establishing intracranial tumors was described previously (B. L. Carlson, J. L. Pokorny, M. A. Schroeder, J. N. Sarkaria, Current Protocols in Pharmacology 2011, 52, 1; B. L. Carlson, P. T. Grogan, A. C. Mladek, M. A. Schroeder, G. J. Kitange, P. A. Decker, C. Giannini, W. Wu, K. A. Ballman, C. D. James, J. N. Sarkaria, International Journal of Radiation Oncology, Biology, Physics 2009, 75, 212). In brief, flank GBM6 tumor xenografts were harvested, mechanically disaggregated and stereotaxically injected into the frontal lobe of 6-week-old female NOD-SCID mice (Jackson Laboratories). […] At about 4 weeks post-tumor implantation, mice with similar tumor size as evaluated by MRI were randomized to one treatment group treated with NP-siMGMT-CTX+TMZ, and three control groups treated with either NP-siGFP-CTX+TMZ, TMZ only, or untreated. […]

The subject of the next data set is SF763 cells. As to the kind of experiment: Clonogenic assay, MGMT-proficient SF763 cells. To be noted: SF763 (GBM cell line).
The test system of a further data set is primary brain tumors. Particulars: cited from earlier work.

Description for GBM6 cells: Cell survival assays. Alamar blue assay was used to evaluate cell viability following the manufacture's protocol (Life Technologies). […] AB assay was conducted at 2 days after transfection. Cells were washed with PBS (pH 7.4) three times before adding 10% AB in complete growth medium to the wells. After incubation for 1 hr, the AB solution was transferred to a 96-well plate, and fluorescent emissions at an excitation wavelength of 550 nm and an emission wavelength of 590 nm were read on a SpectraMax M5 microplate reader (Molecular Devices).

As to `Nc1nc(OCc2ccccc2)c2nc[nH]c2n1` [BG, O^6-benzylguanine], in data set [1], the “toxicity in combination with TMZ” value is reported as “severe myelotoxicity”.
With `Cn1nnc2c(C(N)=O)ncn2c1=O` [TMZ, temozolomide], the “TMZ required for effective treatment” value with GBM6 cells is 4 mM; in the data set on A1235 cells, 10 µM; in the data set on SF763 cells, 400 µM. The same molecule had a median survival in data set [2] (NPs given with TMZ per FIG. 5A schedule, TMZ 100 mg/kg oral) of 40.8 ± 2.7 days. This molecule gave an extension of lifespan in data set [2] (versus untreated mice) of 2.3 days.
In the case of chlorotoxin [CTX], the “primary brain tumors targeted, of those examined” value in the data set with primary brain tumors is recorded as 74 out of 79.
